Experimental data as given in the supplement of paper PMC6045584.
± gives the standard deviation of the averaged measurements.

What was measured:
LAPATINIB = compound: CS(=O)(=O)CCNCc1ccc(-c2ccc3ncnc(Nc4ccc(OCc5cccc(F)c5)c(Cl)c4)c3c2)o1 [LAPATINIB]; experiment: surviving fraction relative to DMSO-only wells; higher = less growth inhibition; conditions: exposure time: 5 days
Outline: (§1)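 After seeding at 250–500 cells per well in 384-well plates and a 24-hour wait, log-phase tumour cell lines were exposed without interruption for five days to inhibitors at 0.5, 1, 5, 10, 50, 100, 500 and 1000 nM. CellTiter-Glo luminescence was recorded after 10 minutes at room temperature. Viability is reported as surviving fraction, the luminescence normalised to the median of DMSO-only wells.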

RESVERATROL = compound: Oc1ccc(/C=C/c2cc(O)cc(O)c2)cc1 [RESVERATROL]; experiment: as above; conditions: exposure time: 5 days
Outline: as §1

Test System	surviving fraction (LAPATINIB; 0.5 nM)	surviving fraction (LAPATINIB; 1 nM)	surviving fraction (LAPATINIB; 5 nM)	surviving fraction (LAPATINIB; 10 nM)	surviving fraction (LAPATINIB; 50 nM)	surviving fraction (LAPATINIB; 100 nM)	surviving fraction (LAPATINIB; 500 nM)	surviving fraction (LAPATINIB; 1000 nM)	surviving fraction (RESVERATROL; 0.5 nM)	surviving fraction (RESVERATROL; 1 nM)	surviving fraction (RESVERATROL; 5 nM)	surviving fraction (RESVERATROL; 10 nM)	surviving fraction (RESVERATROL; 50 nM)	surviving fraction (RESVERATROL; 100 nM)	surviving fraction (RESVERATROL; 500 nM)	surviving fraction (RESVERATROL; 1000 nM)
22RV1 PROSTATE	1.01 ± 0.05	1.1 ± 0.096	0.954 ± 0.076	1.01 ± 0.1	1.04 ± 0.034	1.07 ± 0.085	1.08 ± 0.12	1.11 ± 0.059	1.01 ± 0.05	1.04 ± 0.076	1.05 ± 0.067	1.04 ± 0.024	0.981 ± 0.015	1.09 ± 0.032	0.961 ± 0.12	1.05 ± 0.079
93VU HEADNECK	1.04 ± 0.13	1.09 ± 0.11	1.07 ± 0.018	1.12 ± 0.069	0.806 ± 0.021	0.827 ± 0.045	0.493 ± 0.039	0.438 ± 0.041	1.07 ± 0.11	1.07 ± 0.095	1.11 ± 0.065	1.14 ± 0.078	1.149 ± 0.0099	1.22 ± 0.16	1.1 ± 0.068	1.11 ± 0.15
143B BONE	0.986 ± 0.065	1.07 ± 0.057	0.931 ± 0.14	0.967 ± 0.11	1.01 ± 0.013	1.08 ± 0.11	1.02 ± 0.016	1.01 ± 0.021	0.925 ± 0.14	1.07 ± 0.016	1.01 ± 0.021	1.065 ± 0.0021	0.885 ± 0.19	0.947 ± 0.17	1.01 ± 0.037	1.11 ± 0.057
A549 LUNG	1.038 ± 0.0095	1.14 ± 0.044	1.06 ± 0.02	1.07 ± 0.016	1.02 ± 0.043	1.06 ± 0.05	1 ± 0.041	1.02 ± 0.036	1.03 ± 0.011	1.07 ± 0.043	1.05 ± 0.024	1.05 ± 0.026	1.04 ± 0.021	1.09 ± 0.06	1.07 ± 0.044	1.11 ± 0.062
ASKA SYNOVIAL	1.17 ± 0.046	1.1 ± 0.012	1.13 ± 0.045	1.16 ± 0.053	1.21 ± 0.092	1.19 ± 0.069	1.16 ± 0.1	1.15 ± 0.068	1.12 ± 0.019	1.15 ± 0.089	1.22 ± 0.077	1.25 ± 0.058	1.12 ± 0.13	1.22 ± 0.051	1.1 ± 0.072	1.13 ± 0.1
BT20 BREAST	1.12 ± 0.065	1.128 ± 0.0092	1.05 ± 0.048	1.12 ± 0.05	1.14 ± 0.048	1.18 ± 0.054	1.16 ± 0.045	1.38 ± 0.068	1.05 ± 0.052	1.13 ± 0.1	1.13 ± 0.038	1.15 ± 0.059	1.06 ± 0.037	1.12 ± 0.078	1.12 ± 0.19	1.25 ± 0.12
BT549 BREAST	1.1 ± 0.073	1.01 ± 0.081	0.971 ± 0.044	1.06 ± 0.043	1.07 ± 0.1	1.03 ± 0.054	1.15 ± 0.14	0.977 ± 0.085	0.97 ± 0.081	1.1 ± 0.17	0.942 ± 0.14	1.09 ± 0.06	1.16 ± 0.038	1.01 ± 0.14	1.15 ± 0.047	1.12 ± 0.028
C33A CERVIX	0.988 ± 0.07	1.03 ± 0.041	1.11 ± 0.036	1.02 ± 0.045	0.887 ± 0.037	0.859 ± 0.017	0.62 ± 0.014	0.537 ± 0.017	0.928 ± 0.045	0.933 ± 0.052	0.956 ± 0.14	0.998 ± 0.032	0.978 ± 0.028	0.974 ± 0.096	0.946 ± 0.023	0.958 ± 0.049
CADOES1 SOFT TISSUE	0.959 ± 0.045	1.06 ± 0.096	0.976 ± 0.12	0.996 ± 0.16	0.958 ± 0.096	1.09 ± 0.097	1.13 ± 0.052	1.13 ± 0.094	0.972 ± 0.09	0.939 ± 0.14	0.952 ± 0.047	0.931 ± 0.074	0.993 ± 0.023	1.02 ± 0.061	0.991 ± 0.017	1.02 ± 0.068
CAL51 BREAST	0.966 ± 0.078	1.08 ± 0.024	1.03 ± 0.055	1.02 ± 0.04	0.994 ± 0.042	1.08 ± 0.032	1.02 ± 0.089	0.989 ± 0.03	0.901 ± 0.03	1.04 ± 0.033	1.07 ± 0.034	1.03 ± 0.038	1.04 ± 0.056	1.03 ± 0.028	1.02 ± 0.047	1.1 ± 0.043
CAL72 BONE	1.13 ± 0.081	1.1 ± 0.061	1.16 ± 0.083	1.11 ± 0.055	1.11 ± 0.015	1.12 ± 0.096	1.02 ± 0.077	0.951 ± 0.17	1.07 ± 0.057	1.06 ± 0.084	1.05 ± 0.073	1.05 ± 0.12	1.05 ± 0.055	1.08 ± 0.1	1.04 ± 0.082	1.04 ± 0.12
CAL120 BREAST	1.02 ± 0.052	1.03 ± 0.044	1.02 ± 0.043	1 ± 0.039	1.04 ± 0.042	1.03 ± 0.075	0.998 ± 0.052	0.994 ± 0.045	0.966 ± 0.049	1.01 ± 0.059	0.975 ± 0.058	0.983 ± 0.069	1.02 ± 0.07	0.998 ± 0.043	1.04 ± 0.017	1.04 ± 0.056
CASKI CERVIX	0.884 ± 0.037	0.902 ± 0.013	0.952 ± 0.042	0.818 ± 0.042	0.775 ± 0.044	0.685 ± 0.021	0.426 ± 0.013	0.321 ± 0.013	0.938 ± 0.09	0.926 ± 0.033	0.959 ± 0.045	0.963 ± 0.049	1.03 ± 0.036	1.05 ± 0.099	0.993 ± 0.023	1.06 ± 0.041
CHLA90 AUTONOMIC GANGLIA	0.964 ± 0.031	0.99 ± 0.07	1.01 ± 0.052	0.947 ± 0.051	0.965 ± 0.06	0.981 ± 0.11	0.931 ± 0.073	0.875 ± 0.11	1.01 ± 0.075	0.996 ± 0.049	0.984 ± 0.024	1.03 ± 0.033	0.962 ± 0.056	1.07 ± 0.043	1.07 ± 0.064	1.08 ± 0.053
CME SYNOVIAL	1.13 ± 0.2	1.4 ± 0.13	1.43 ± 0.1	1.28 ± 0.12	1.26 ± 0.096	1.35 ± 0.19	1.2 ± 0.059	1.14 ± 0.16	1.23 ± 0.043	1.29 ± 0.045	1.4 ± 0.15	1.44 ± 0.15	1.37 ± 0.059	1.38 ± 0.14	1.33 ± 0.18	1.21 ± 0.039
COLO320DM LARGE INTESTINE	1.01 ± 0.08	1.09 ± 0.016	1.14 ± 0.026	1.2 ± 0.082	1.06 ± 0.015	1.15 ± 0.083	1.1 ± 0.05	1.12 ± 0.075	1.06 ± 0.14	1 ± 0.062	1.07 ± 0.081	1.07 ± 0.04	1.03 ± 0.063	1.15 ± 0.086	1.08 ± 0.077	1.12 ± 0.031
DU4475 BREAST	0.907 ± 0.062	1.1 ± 0.13	1.02 ± 0.079	0.944 ± 0.017	1.07 ± 0.12	0.957 ± 0.11	1.14 ± 0.11	0.932 ± 0.025	1 ± 0.13	0.973 ± 0.051	0.967 ± 0.13	0.964 ± 0.074	0.985 ± 0.1	1.05 ± 0.17	1.02 ± 0.047	1.1 ± 0.22
H23 LUNG	1.02 ± 0.071	1.1 ± 0.075	0.9837 ± 0.0059	1.01 ± 0.019	0.861 ± 0.039	0.834 ± 0.031	0.4077 ± 0.0038	0.367 ± 0.023	0.99 ± 0.019	1.06 ± 0.051	1.02 ± 0.071	1.05 ± 0.023	0.994 ± 0.044	1.07 ± 0.036	1 ± 0.034	1.11 ± 0.096
HCC78 LUNG	0.98 ± 0.029	0.972 ± 0.093	1.01 ± 0.038	0.795 ± 0.26	0.82 ± 0.075	0.944 ± 0.1	0.857 ± 0.12	0.872 ± 0.12	0.894 ± 0.15	0.894 ± 0.065	0.983 ± 0.035	1.05 ± 0.15	1.12 ± 0.2	1.03 ± 0.1	0.901 ± 0.26	0.904 ± 0.1
HCC202 BREAST	1.3 ± 0.2	0.845 ± 0.19	1.17 ± 0.43	0.937 ± 0.17	0.905 ± 0.14	0.726 ± 0.31	0.383	0.221 ± 0.029	1 ± 0.23	1.18 ± 0.11	1.14 ± 0.059	1.06 ± 0.05	1.75 ± 0.46	1.49 ± 0.42	1.32 ± 0.14	1.33 ± 0.39
